The record followed here is PMC8875489, “Pharmaceutical and Safety Profile Evaluation of Novel Selenocompounds with Noteworthy Anticancer Activity” (Pharmaceutics, 2022).

Molecules are shown by their SMILES. Read-outs that look alike come from different tables or passages of the source.

A short description of series [1]: Chemical stability in acidic and alkaline environments (TLC-monitored). As to conditions: TLC at 10 min, 1, 2, 3, 24, 48 h; for chemical stability in the acidic environment: 2 mg/mL in methanol + 10% HCl 1:1; for chemical stability in the alkaline environment: 2 mg/mL in methanol + 10% NaOH 1:1. The series is classed as physicochemical. The protocol:
The chemical stability of the new organic selenocompounds was evaluated in two different environments (acidic and alkaline). Firstly, tested selenocompounds were dissolved in pure anhydrous methanol to obtain a stock solution with a concentration of 2 mg/mL. Then, the solution was divided into two equal parts. A 10% solution of HCl was added in 1:1 proportion to the first part, and a 10% solution of NaOH was added to the second part in the same 1:1 proportion. Then, the stability of the tested Se compounds, either in the acidic or in the basic conditions, was TLC-monitored at specific time periods: 10 min and 1, 2, 3, 24, and 48 h. The following eluents were used: (i) methylene chloride for EDA-26, EDA-73, EDA-74, EDA-93, EDA-109, EDA-119, EDA-120, and EDA-122; a mixture of n-hexane and ethyl acetate in a 4:1 ratio for EDA-58; (ii) chloroform for EDA-71 and EDA-A6; and (iii) acetone for EDA-117.
In the next step of the experiments, the chemical stability of 11 selenoesters (EDA-26, EDA-71, EDA-73, EDA-74, EDA-58, EDA-93, EDA-109, EDA-117, EDA-119, EDA-120 and EDA-122) and the selenoanhydride EDA-A6 in acidic and alkaline environments was evaluated by the use of a previously described method. Unfortunately, it was not possible to estimate the chemical stability of the compounds EDA-46, EDA-53, EDA-56, and […] due to their physicochemical properties: they were liquid at room temperature in the form of an oil, which is not miscible with water.

The subject of series [2] is Salmonella Typhimurium TA100 strain. As to conditions: for Fold Increase over Baseline / MI (mutagenic index) / B (binomial B value) / cytotoxic effect label beside B value: TA100; for Fold Increase over Baseline: alert ≥ 2.0; for MI (mutagenic index): mutagenic if MI ≥ 2; for B (binomial B value): threshold ≥ 0.99; for mutagenicity conclusion in Ames test: TA100, 1 and 10 µM. The protocol:
Safety profiles were evaluated using an in vitro microbiological method adapted to the microplate Ames test (384-well microtitration plate), which applies Salmonella enterica serovar Typhimurium bacterial strains (the gold standard in mutagenicity research). The experiment was performed according to a previously described protocol, which is provided in the Supplementary Materials. Briefly, the TA 100 strain (deprived of the ability to synthesize the histidine) was incubated with each tested compound in an exposure medium containing a limited amount of histidine. The reversion events were counted both manually and by means of a microplate reader. Each fold increase bigger than two times the baseline level (≥2.0-fold) was considered to indicate a mutagen alert. The experiments and data analyses were prepared according to the procedure that was previously described by Flückiger-Isler et al.. The assay was performed in triplicate. The positive control selected for the mutagenicity assays was NQNO, which causes genome point mutations; specifically, it promotes G:C → A:T transitions in the Salmonella Typhimurium TA-100 strain and other bacteria such as Vibrio harveyi and Escherichia coli.
In the next step of the studies, the in vitro safety profiles of the tested selenocompounds were evaluated. All compounds were tested with the 384-well plate microfluctuation Ames test. The mutagenic index (MI) was used as the measure of mutagenicity.
1.5. Safety profile evaluation - Ames microplate mutagenicity assay
Safety profile was evaluated by the means of in vitro microbiological methods – adapted to microplate Ames test, which applies Salmonella enterica serovar Typhimurium bacterial strains (the gold standard in mutagenicity research).
1.5.1. Compounds preparation
To evaluate the impact of tested compounds and of references on Salmonella enterica serovar Typhimurium (onwards Salmonella Typhimurium) TA-100 strain growth by means of the Ames test, the compounds or the reference were dissolved in the pure DMSO, to obtain the corresponding 10 mM stock solutions. Working solutions for tested compounds (25 μM and 250 μM concentrations) were prepared before the assay in DMSO.
1.5.2. Microplate Ames mutagenicity assay protocol
Prior to the experiment, Salmonella Typhimurium was cultured overnight (NB-2 liq-uid medium in the presence of 25 μg/mL ampicillin). At the day of the experiment, fresh dilutions of the tested compounds (25 μM and 250 μM), reference compound (methylse-leninic acid) and standard mutagen (4-nitroquinoline-N-oxide at 2.5 μM and 12.5 μM) in DMSO were prepared. The positive control selected for the mutagenicity assays was NQNO, which causes point mutations at the genome. Specifically, it promotes G:C → A:T transitions in Salmonella Typhimurium TA-100 strain and in the other bacteria such as Vib-rio harveyi and Escherichia coli.
The mutagenic potential of the tested derivatives was evaluated by the incubation of the abovementioned bacteria (deprived of the ability to synthesize the histidine) with spe-cific concentrations of the tested compounds (for 90 min in the exposure medium), con-taining a limited amount of histidine (enough to provide approximately 2-3 cell divisions).
The occurrence of reversion events to histidine prototrophy was observed through the bacterial growth in the indicator medium without histidine after 48 h of incubation in temperature of 37° C [45]. The final compound and the mutagenic agent concentrations in each single well of a 384 well plate were 1 μM and 10 μM for the compounds; and 0.1 μM and 0.5 μM for the mutagen. Lastly, both a manual count and a microplate reader were used to obtain the results. The medium control baseline (MCB) was estimated as the mean number of revertants in the medium control plus one standard deviation. Each fold in-crease bigger than two times the baseline level ≥ 2.0 was considered as a mutagen alert.
Background: In the Ames test, an excess of revertant colonies over the control signals mutagenicity.

In the case of `COc1cc(OC)cc(C(=O)[Se]CC(=O)C(C)(C)C)c1` [EDA-74, Se-(3,3-dimethyl-2-oxobutyl) 3,5-dimethoxybenzoselenoate], in series [1], the “chemical stability in the acidic environment” value is listed as “stable till the end of the experiment (48 h)” and the “chemical stability in the alkaline environment” value is listed as “unstable”. Also, in series [2] (1 µM), the “Fold Increase over Baseline” value turned out to be 0.98, the “MI (mutagenic index)” value was found to be 0.88 and the “B (binomial B value)” value is given as 0.94. For the same compound, in series [2] (10 µM), the “Fold Increase over Baseline” value amounted to 0.76, the “MI (mutagenic index)” value is given as 0.69 and the “B (binomial B value)” value was 0.68.
Turning to `O=C1[Se]C(=O)c2ccccc21` [EDA-A6, benzo[c]selenophene-1,3-dione], the “chemical stability in the alkaline environment” value in series [1] is “unstable”. In series [2] (1 µM), the “Fold Increase over Baseline” value worked out at 1.08, the “MI (mutagenic index)” value is recorded as 1.23 and the “B (binomial B value)” value came to 0.94. For the same compound, in series [2] (10 µM), the “cytotoxicity for Salmonella Typhimurium in Ames test” value was “could have been cytotoxic”, the “cytotoxic effect label beside B value” is given as “C (data points that are significantly smaller (B ≤ 0.01 (bolded)) than the mean number of spontaneous revertants are labelled C for “cytotoxic effect”)”, the “Fold Increase over Baseline” value was 0.33 and the “MI (mutagenic index)” value stood at 0.38. For the same compound, in series [2] (10 µM), the “B (binomial B value)” value came out at 0.001.
As for `O=C(C[Se]C(=O)c1ccccc1)Oc1ccccc1` [EDA-93, phenyl 2-(benzoylselanyl)acetate], in series [1], the “chemical stability in the acidic environment” value is listed as “unstable” and the “chemical stability in the alkaline environment” value is given as “unstable”. In series [2] (1 µM), the “Fold Increase over Baseline” value amounted to 1.02, the “MI (mutagenic index)” value amounted to 1.27 and the “B (binomial B value)” value was 0.96. Besides, in series [2] (10 µM), the “Fold Increase over Baseline” value worked out at 0.87, the “MI (mutagenic index)” value is listed as 1.08 and the “B (binomial B value)” value is on record as 0.80.
Turning to `CC(=O)C[Se]C(=O)c1ccc(Cl)cc1` [EDA-71, Se-(2-oxopropyl) 4-chlorobenzoselenoate], in series [1], the “chemical stability in the acidic environment” value is listed as “totally unstable” and the “chemical stability in the alkaline environment” value is reported as “unstable”. Further, in series [2] (1 µM), the “Fold Increase over Baseline” value was 0.60, the “MI (mutagenic index)” value is listed as 0.54 and the “B (binomial B value)” value is given as 0.34. Besides, in series [2] (10 µM), the “Fold Increase over Baseline” value is 0.89, the “MI (mutagenic index)” value is on record as 0.79 and the “B (binomial B value)” value is on record as 0.98.
`C[Se]C(=O)c1cccc(C(=O)[Se]C)c1` [EDA-120, Se,Se-dimethyl benzene-1,3-bis(carboselenoate)]: in series [1], the “chemical stability in the acidic environment” value is “stable till the end of the analysis (48 h)” and the “chemical stability in the alkaline environment” value is reported as “totally unstable”. Further, in series [2] (1 µM), the “MI (mutagenic index)” value came to 1.24 and the “B (binomial B value)” value came to 1.00. In addition, in series [2] (10 µM), the “MI (mutagenic index)” value is on record as 1.46 and the “B (binomial B value)” value was found to be 1.00. Moreover, in series [2], the “mutagenicity conclusion in Ames test” value is listed as “non-mutagenic”.
For the compound `C[Se]C(=O)c1cccc(C(=O)[Se]C)n1` [EDA-119, Se,Se-dimethyl pyridine-2,6-bis(carboselenoate)], in series [2] (1 µM), the “Fold Increase over Baseline” value turned out to be 0.54, the “MI (mutagenic index)” value amounted to 0.56 and the “B (binomial B value)” value stood at 0.24. Further, in series [2] (10 µM), the “Fold Increase over Baseline” value is 0.92, the “MI (mutagenic index)” value amounted to 0.96 and the “B (binomial B value)” value is recorded as 0.90.
Consider `COC(=O)C[Se]C(=O)c1cc(OC)c(OC)c(OC)c1` [EDA-26, methyl 2-((3,4,5-trimethoxybenzoyl)selanyl)acetate], for which, in series [1], the “chemical stability in the acidic environment” value is “stable till the end of the analysis (48 h)” and the “chemical stability in the alkaline environment” value was “totally unstable”. Further, in series [2] (1 µM), the “Fold Increase over Baseline” value is reported as 0.96, the “MI (mutagenic index)” value is listed as 1.51 and the “B (binomial B value)” value is recorded as 0.92. For the same compound, the “Fold Increase over Baseline” value in series [2] (10 µM) turned out to be 1.37. Further, in series [2], the “mutagenicity conclusion in Ames test” value is reported as “may have had mutagenic potential”.
As to `COC(=O)C[Se]C(=O)c1cc(OC)cc(OC)c1` [EDA-58, methyl 2-((3,5-dimethoxybenzoyl)selanyl)acetate], in series [2] (1 µM), the “Fold Increase over Baseline” value is 0.67, the “MI (mutagenic index)” value was 0.57 and the “B (binomial B value)” value is given as 0.80. In series [2] (10 µM), the “Fold Increase over Baseline” value was found to be 1.78, the “MI (mutagenic index)” value was 1.51 and the “B (binomial B value)” value turned out to be 1.00.
In the case of `CC(C)(C)C(=O)C[Se]C(=O)c1ccc(Cl)cc1` [EDA-73, Se-(3,3-dimethyl-2-oxobutyl) 4-chlorobenzoselenoate], in series [1], the “chemical stability in the acidic environment” value is reported as “stable till the end of the experiment (48 h)” and the “chemical stability in the alkaline environment” value was “unstable”. In series [2] (1 µM), the “Fold Increase over Baseline” value is recorded as 0.84, the “MI (mutagenic index)” value is reported as 1.28 and the “B (binomial B value)” value is on record as 0.72. Besides, in series [2] (10 µM), the “Fold Increase over Baseline” value worked out at 0.52, the “MI (mutagenic index)” value is listed as 0.79 and the “B (binomial B value)” value was determined as 0.04.
Consider `C[Se]C(=O)c1ccc(C(=O)[Se]C)s1` [EDA-122, Se,Se-dimethyl thiophene-2,5-bis(carboselenoate)], for which, in series [2] (1 µM), the “Fold Increase over Baseline” value is on record as 0.63, the “MI (mutagenic index)” value turned out to be 0.84 and the “B (binomial B value)” value is listed as 0.14. Further, in series [2] (10 µM), the “Fold Increase over Baseline” value came out at 1.08, the “MI (mutagenic index)” value stood at 1.46 and the “B (binomial B value)” value is recorded as 0.94.
For `C[Se]C(=O)c1ccc(C(=O)[Se]C)cc1` [EDA-109, Se,Se-dimethyl benzene-1,4-bis(carboselenoate)], in series [1], the “chemical stability in the acidic environment” value is recorded as “stable till the end of the analysis (48 h)” and the “chemical stability in the alkaline environment” value was “totally unstable”. In series [2] (1 µM), the “Fold Increase over Baseline” value is listed as 0.55, the “MI (mutagenic index)” value was determined as 0.96 and the “B (binomial B value)” value amounted to 0.07. Also, in series [2] (10 µM), the “cytotoxicity for Salmonella Typhimurium in Ames test” value is given as “cytotoxic activity was observed”, the “cytotoxic effect label beside B value” is given as “C (data points that are significantly smaller (B ≤ 0.01 (bolded)) than the mean number of spontaneous revertants are labelled C for “cytotoxic effect”)”, the “Fold Increase over Baseline” value was determined as 0.39 and the “MI (mutagenic index)” value is recorded as 0.67.
